Measured values: the supplement of paper PMC13380429

Experiments:
Conditions in all cases: 72 h
[1] = tested on: HepG2; assay: relative viability EC50 (midpoint between 100% and the lowest measured viability); higher = less toxic
[2] = tested on: Vero E6; assay: as above
[3] = tested on: Calu-3; assay: as above
[4] = tested on: HepG2; assay: drug sensitivity score (DSS) for viability; higher = more toxic; extreme values may be limits of the assay
[5] = tested on: Vero E6; assay: as above
[6] = tested on: U2OS; assay: as above
[7] = tested on: Calu-3; assay: as above
[8] = tested on: Caco-2; assay: as above
[9] = tested on: HepG2; assay: cell viability relative to DMSO; higher = less toxic
[10] = tested on: Vero E6; assay: as above
[11] = tested on: U2OS; assay: as above
[12] = tested on: Calu-3; assay: as above
[13] = tested on: Caco-2; assay: as above
[14] = tested on: U2OS; assay: relative viability EC50 (midpoint between 100% and the lowest measured viability); higher = less toxic

| SMILES | relative viability EC50 [1] [nM] | relative viability EC50 [2] [µM] | relative viability EC50 [3] [µM] | drug sensitivity score [4] | drug sensitivity score [5] | drug sensitivity score [6] | drug sensitivity score [7] | drug sensitivity score [8] | cell viability ([9]; 1 nM) [%] | cell viability ([9]; 10 nM) [%] | cell viability ([9]; 100 nM) [%] | cell viability ([9]; 1000 nM) [%] | cell viability ([9]; 10000 nM) [%] | cell viability ([10]; 1 nM) [%] | cell viability ([10]; 10 nM) [%] | cell viability ([10]; 100 nM) [%] | cell viability ([10]; 1000 nM) [%] | cell viability ([10]; 10000 nM) [%] | cell viability ([11]; 1 nM) [%] | cell viability ([11]; 10 nM) [%] | cell viability ([11]; 100 nM) [%] | cell viability ([11]; 1000 nM) [%] | cell viability ([11]; 10000 nM) [%] | cell viability ([12]; 1 nM) [%] | cell viability ([12]; 10 nM) [%] | cell viability ([12]; 100 nM) [%] | cell viability ([12]; 1000 nM) [%] | cell viability ([12]; 10000 nM) [%] | cell viability ([13]; 1 nM) [%] | cell viability ([13]; 10 nM) [%] | cell viability ([13]; 100 nM) [%] | cell viability ([13]; 1000 nM) [%] | cell viability ([13]; 10000 nM) [%] | relative viability EC50 [14] [nM] |
| --- | --- | --- | --- | --- | --- | --- | --- | --- | --- | --- | --- | --- | --- | --- | --- | --- | --- | --- | --- | --- | --- | --- | --- | --- | --- | --- | --- | --- | --- | --- | --- | --- | --- | --- |
| CCc1c2c(nc3ccc(OC(=O)N4CCC(N5CCCCC5)CC4)cc13)-c1cc3c(c(=O)n1C2)COC(=O)[C@]3(O)CC [irinotecan] | 244 | > 10 | 0.679 | 14.4 | 1.6 | 3.8 | 6.5 | 3.3 | 95.4 | 99.2 | 76.9 | 37.5 | 21.7 | 94.3 | 97.4 | 95.6 | 95.8 | 75.2 | 104 | 97.4 | 98.1 | 88.7 | 59.1 | 103 | 94.7 | 93.7 | 69.3 | 47.5 | 95.1 | 91.6 | 95.5 | 90.9 | 61.5 | – |
| O=C(/C=C/c1ccc(O)c(O)c1)OCCc1ccccc1 [caffeic-acid-phenethyl-ester] | – | > 10 | > 10 | 2.3 | 0 | 1.4 | 0 | 3.2 | 92 | 106 | 99.6 | 90.2 | 73.9 | 96.9 | 101 | 96.4 | 96.4 | 90.6 | 98.4 | 102 | 98.9 | 99.2 | 69.9 | 95.4 | 97.4 | 99.1 | 94.4 | 90.3 | 92 | 99.6 | 101 | 88.2 | 66.9 | – |
| CS[C@H]1SC[C@H]2C(=O)N(C)[C@@H](C(C)C)C(=O)OC[C@@H](NC(=O)c3cnc4ccccc4n3)C(=O)N[C@@H](C)C(=O)N(C)[C@@H]1C(=O)N(C)[C@@H](C(C)C)C(=O)OC[C@@H](NC(=O)c1cnc3ccccc3n1)C(=O)N[C@@H](C)C(=O)N2C [echinomycin] | 1.8 | 0.024 | < 0.001 | 42.9 | 31.7 | 47.9 | 41.3 | 22.8 | 77.1 | 9.7 | 6.7 | 7 | 7.7 | 104 | 90.4 | 2.1 | 4.6 | 1 | 54.1 | 0.5 | 0.6 | 2.3 | 1.8 | 57.6 | 16 | 27.3 | 35.5 | 36.2 | 63.1 | 54.7 | 57.2 | 63.2 | 75.9 | 1.1 |
| C[C@]12CC[C@@H]3c4ccc(O)cc4CC[C@H]3[C@@H]1CCC2=O [estrone] | – | – | – | 0 | 0 | 0 | 0 | – | – | – | – | – | – | – | – | – | – | – | – | – | – | – | – | – | – | – | – | – | – | – | – | – | – | – |
| CCN1CCCC(OC(=O)C(c2ccccc2)c2ccccc2)C1 (configuration not stated) [piperidolate] | > 10000 | > 10 | > 10 | 0 | 0 | 0 | 0 | 7 | 105 | 89.1 | 115 | 97.8 | 110 | 98.8 | 98.7 | 98 | 98 | 98.2 | 98.4 | 100 | 100 | 100 | 92.4 | 99.1 | 95.2 | 102 | 105 | 89.3 | 89 | 90.3 | 70.2 | 79.2 | 77.9 | > 10000 |
| O=C(O)C[C@H](O)C[C@H](O)/C=C/c1c(C2CC2)nc2ccccc2c1-c1ccc(F)cc1 [pitavastatin] | – | 1.62 | – | 2.9 | 8.5 | 9.4 | 4.4 | 2.4 | 88.5 | 97.1 | 82 | 95.7 | 57.1 | 93.9 | 105 | 88.7 | 78 | 6.4 | 98.7 | 97 | 100 | 68.3 | 9.6 | 103 | 98.1 | 99.2 | 84.7 | 56.4 | 103 | 93.6 | 97.3 | 89.4 | 70.3 | 1280 |
| O=C(O)CCCO [SODIUM OXYBATE] | > 10000 | > 10 | > 10 | 0 | 0 | 0 | 0 | – | 82.4 | 105 | 92.8 | 90.8 | 110 | 93.6 | 100 | 99.1 | 102 | 87.2 | 103 | 101 | 103 | 96.4 | 100 | 97.3 | 99 | 94.7 | 115 | 112 | – | – | – | – | – | > 10000 |
